Laboratory results reported in paper PMC8238065, “Prodrug-based nano-delivery strategy to improve the antitumor ability of carboplatin in vivo and in vitro” (Drug Delivery, 2021).

Legend:
[1] = test system: H460 tumor; test: In vivo antitumor experiment in H460 tumor-bearing nude mice; conditions: tail vein injection twice a week for two weeks, CAR 0.75 and 1.5 mg·kg^−1, equivalent PEG-CAR-C16 5.5 and 11.0 mg·kg^−1
Protocol: The female nude mice models (5–6 weeks old, 18–22 g) used in the experiment were purchased from Unilever (London, UK), and the experiment was conducted in accordance with the principle of protection of experimental animals. To establish animal model of NSCLC, 0.2 mL of H460 cells with concentration density about 1.0 × 10^7/mL were inoculated to the left axilla of the mice. The volume of tumors was measured and recorded using a vernier caliper.
When the average tumor volume of nude mice inoculated with H460 cells grown to about 100 mm^3, the mice were randomly divided into […] (n = 6) including normal saline group (I, NS), CAR group (II, 0.75 mg·kg^−1), equivalent PEG-CAR-C16 group (IV, 5.5 mg·kg^−1), CAR group (III, 1.5 mg·kg^−1), equivalent PEG-CAR-C16 group (V, 11.0 mg·kg^−1). The mice in each group were given drugs by tail vein injection twice a week for two weeks. The volume of tumor was measured every two days and calculated according to the long diameter a and the short diameter b. The tumor inhibition rate is expressed as follows: tumor volume (Vt)=a×b^2/2.

[2] = test system: H460 cells; test: MTT cytotoxicity, H460 cells; format: cell-based; conditions: 500 μM, 72 h
Protocol: The NSCLC A549 and H460 cells were incubated in 1640 medium containing 10% fetal bovine serum albumin, and these cells were stored in a humidified environment of 37 °C and 5% carbon dioxide.
In order to investigate the cytotoxicity of PEG-CAR-C16 micelles, the cell inhibition rates of A549 and H460 cells were determined by the MTT. Primarily, A549 and H460 cell lines were respectively cultured in 1640 culture medium, then transferred into a 96-well plate and incubated for 24 h under the condition of 37 °C, 5% CO2. Then, CAR and PEG-CAR-C16 micelles solution with different concentrations (15–500 μM) were added into the 96-well plate and incubated for 24, 48, and 72 h, respectively. After added with 10 μL of MTT solution to each well, the cells were incubated at 37 °C for 4 h again. Finally, the solution was removed, 100 μL of DMSO was then added to dissolve the produced formazan crystals and the […] were recorded by microplate reader. The cytotoxicity of PEG-CAR-C16 micelles could be expressed by cell inhibition rate.

[3] = In vivo pharmacokinetics of Pt after intravenous injection (ICP-MS); parameters: species or system Wistar rats; conditions: Pt in rats, equivalent CAR dose 1.5 mg·kg^−1
Protocol: To conduct the pharmacokinetic tests, six female Wistar rats (Harlan, Israel, 200 ± 20 g) were randomly administered into two groups primarily. The CAR solution was prepared by dissolving CAR in 5% glucose solution, and the PEG-CAR-C16 polymer micelles were prepared by hydrating the thin film using 5% glucose solution during the micelle formation. Then CAR and PEG-CAR-C16 polymer micelles (the equivalent CAR does was 1.5 mg·kg^−1) were injected intravenously. After collected from the treated […] within a specified time point, the blood samples were centrifuged at 3000 rpm for 10 min, and then the centrifuged samples were frozen at −20 °C for further use. All the blood samples were processed by microwave digestion and then the Pt concentration was examined by using inductively coupled plasma mass spectrometry (ICP-MS). The representative pharmacokinetic parameters were calculated by DAS2.0.

Compound: N.N.O=C([O-])C1(C(=O)[O-])CCC1.[Pt+2] [CAR, Carboplatin]
- tumor volume growth / tumor inhibition effect [1]: could control the growth of tumor volume effectively
- cell viability rate [2]: 51.6%
- AUC0–∞ [3]: 4.84 ± 1.58 mg·L^–1·h
- CL [3]: 0.57 ± 0.11 L·h^–1·kg^–1
- MRT0–∞ [3]: 4.72 ± 0.91 h
- Vd [3]: 0.66 ± 0.15 L·kg^–1
- t1/2 [3]: 1.90 ± 1.91 h
